Source: patent publication US20060165761A1, “Wound dressings comprising vanadate complexed with organic ligands” (priority 2002, published 2006)

Columns and labels:
Adult dermal fibroblasts [1] = assay: XTT cell proliferation assay; assay type: cell-based; details: for amount of fibroblast proliferation (FIG. 2): 72 hrs; for ability to stimulate cell proliferation (overall summary): absence of growth factors
Description: (§1) Adult dermal fibroblasts were grown until 95% confluent, trypsinized (2 ml trypsin plate) to prepare a single suspension of fibroblasts. These cells were diluted in DMEM (+10% FBS) media and diluted to a concentration of 25000 cells/ml. […] was placed in each well of a 96 well microplate (2500 cells/well). The fibroblasts were allowed to adhere and spread by incubating for 24 hours (at 37° C., 5% CO2 in a humidified atmosphere) at which point the media was removed and replaced with serum free DMEM+/−stimulant/sample.
(§2) The following vanadate complexes were added in quadruplicate: bpV(pic) was added to a final concentration of 8.14 and 0.81 μM, bpV(bipy) (bisperoxo(bipyridine)oxovanadate) was added to a final concentration of 178 and 17.8 μM. bpV(phen) was added to a final concentration of 12 or 0.124 μM, DMHV (bis-dimethylhydroxamido vanadate, (Me2N—O)2VO(OH)) was added to a final concentration of […]. The vanadate complexes were all obtained as the solid potassium salts from Calbiochem, Catalog numbers 203705, 322130, and 203695.
Negative control samples were untreated and positive control samples were cells treated with DMEM containing 10% FBS or 0.15 ng/ml epidermal growth factor. As a further positive control, Dephostatin (a known tyrosine protein phosphatase inhibitor obtained from Calbiochem, catalog number 263200) was added to a final concentration of 23.8 μM. […]
After 72 hrs the fluid was aspirated off and […] of the XTT labelling mixture (prepared by adding 0.1 ml Electron coupling reagent to every 5 mls of XTT labelling reagent) was added to each well. The plates were read at 450 nm, using a MR5000 plate reader at 2, 2.5 and 3.5 hrs.

Adult dermal fibroblasts [2] = assay: Determination of collagen levels (ELISA) deposited by fibroblasts; assay type: cell-based; details: for ability to stimulate collagen deposition (overall summary): absence of growth factors
Description: as §1, §2
Negative control samples were untreated and positive control samples were cells treated with DMEM containing 10% FBS or 0.15 ng/ml epidermal growth factor. As a further positive control, Dephostatin (a known tyrosine protein phosphatase inhibitor obtained from Calbiochem, catalog number 263200) was added to a final concentration of 23.8 μM.
Additional experiments were performed using the phosphatase inhibitors indicated above in the presence of epidermal growth factor (0.015 ng/ml) or platelet derived growth factor (6 ng/ml).
The amount of collagen produce and deposited into the extracellular environment under each experimental condition was measured using an ELISA method. Collagen type I standards (Sigma cat no 7774, lot 32K3775) and material aspirated from the fibroblasts were coated onto 96 well plates (FALCON 3072) by incubation at 37° C. for 30 min. Non-specific sites were blocked by the addition of […] of 5% solution of bovine serum albumin (BSA) for 30 min. Each well was incubated with a monoclonal antibody against collagen used at a dilution of 1/2000 ((sigma cat no. 2456, lot 081K4897) overnight at 4° C. Samples were washed five times for 5 minutes in wash buffer (PBS+0.05% (v/v) TWEEN-20) and incubated with an HRP-conjugated second antibody against mouse IgG at a dilution of 1/10000 for 2 hr. Each well was washed five times in wash buffer. Deposited collagen was detected using the Sigma FAST method used according to the manufacturers instructions. The plates were incubated at room temperature for 30 minutes and read using a MR5000 plate reader at 450 nm.

[3] = system: capillary endothelial cells; details: in vitro; mimics fibroblast growth factor; cited from earlier work
bone cell = details: in vitro; cited from earlier work
acute wounds in rats = details: vanadate ingestion; cited from earlier work

CN(C)[O][V](=[O])([OH])[O]N(C)C [DMHV, bis-dimethylhydroxamido vanadate, (Me2N—O)2VO(OH)]
amount of fibroblast proliferation (FIG. 2) (Adult dermal fibroblasts [1]; 64 μM, compared to negative control): greater than the negative control | ability to stimulate cell proliferation (overall summary) (Adult dermal fibroblasts [1]): equivalent to the DMHV positive control | amount of collagen deposited by fibroblasts (FIG. 1) (Adult dermal fibroblasts [2]; 6.4-64 μM, compared to positive control): equivalent to the positive control | ability to stimulate collagen deposition (overall summary) (Adult dermal fibroblasts [2]): equivalent to the DMHV positive control

CN(N=O)c1cc(O)ccc1O [Dephostatin, reference compound]
amount of fibroblast proliferation (FIG. 2) (Adult dermal fibroblasts [1]; 23.8 μM, compared to negative control): greater than the negative control | amount of collagen deposited by fibroblasts (FIG. 1) (Adult dermal fibroblasts [2]; 23.8 μM, compared to positive control): equivalent to the positive control

[O-2].[O-][O-].[O-][O-].[V+5].c1cnc2c(c1)ccc1cccnc12 [bpV(phen), bisperoxo-(1,10-phenanthroline)-oxovanadate]
ability to stimulate cell proliferation (overall summary) (Adult dermal fibroblasts [1]; listed as bpV (Phen)): inhibitor of proliferation | ability to stimulate cell proliferation (overall summary) (Adult dermal fibroblasts [1]; listed as bpV (phen)): exception | ability to stimulate cell proliferation (overall summary) (Adult dermal fibroblasts [1]; listed as bpV(Phen)): does not enhance | ability to stimulate collagen deposition (overall summary) (Adult dermal fibroblasts [2]; listed as bpV (phen)): exception | ability to stimulate collagen deposition (overall summary) (Adult dermal fibroblasts [2]; listed as bpV(Phen)): does not enhance

[Na+].[Na+].[Na+].[O]=[V]([O-])([O-])[O-] [vanadate, Sodium Orthovanadate]
endothelial cells invade collagen matrices and organise into tubules [3]: stimulates endothelial cells to invade collagen matrices and organise into tubules | bone cell proliferation (bone cell): stimulates | bone collagen synthesis (bone cell): stimulates | gain in wound breaking strength (acute wounds in rats): increases | organisation of collagen fibres during healing (acute wounds in rats): better organised collagen fibres

Bisperoxo (5-hydroxy pyridine-2-carboxyvanadate) [bpV(pic)]
amount of fibroblast proliferation (FIG. 2) (Adult dermal fibroblasts [1]; 8.14 μM, compared to non treated negative control and FBS and EGF positive controls): most effective activator cell proliferation | amount of fibroblast proliferation (FIG. 3) (Adult dermal fibroblasts [1]; 8.14 μM, compared to non treated and vanadate at 0.1 and 0.01 mmolar): more effective activator of cell proliferation | ability to stimulate cell proliferation (overall summary) (Adult dermal fibroblasts [1]): more effective than even the 10% FBS positive control | amount of collagen deposited by fibroblasts (FIG. 1) (Adult dermal fibroblasts [2]; 8.14 μm, compared to non treated negative control and FBS and EGF positive controls): most effective activator of collagen deposition | ability to stimulate collagen deposition (overall summary) (Adult dermal fibroblasts [2]): more effective than even the 10% FBS positive control

bisperoxo(bipyridine)oxovanadate [bpV(bipy)]
amount of fibroblast proliferation (FIG. 2) (Adult dermal fibroblasts [1]; 17.8 μM, compared to negative control): greater than the negative control | amount of collagen deposited by fibroblasts (FIG. 1) (Adult dermal fibroblasts [2]; 17.8 μM, compared to positive control): equivalent to the positive control
